From patent publication US6436941B1, “5,6-dihydro-napth[1,2-d]-imidazole, napth[1,2-d]imidazole, and chromane[3,4-d]imidazole derivatives” (Neurogen Corporation, priority 1995, dated 2002)
pKi: −log10 of the molar value. Counter-ions that a name gives are not always drawn. Like-named read-outs stand apart in the source and are kept apart here.

What was measured:
D2 receptors = target: T1, D2 receptors (Chlorocebus aethiops, UniProt P52702); assay: D2 receptor binding assay (3H-YM 09151-2 displacement); set-up: species or system African Green monkey; conditions: COS cells with recombinant D2 receptor; 0.5 nM 3H-YM 09151-2
T1 construct: expressed in transfected cells; host or cells: COS cells
T1 sequence (P52702 whole entry): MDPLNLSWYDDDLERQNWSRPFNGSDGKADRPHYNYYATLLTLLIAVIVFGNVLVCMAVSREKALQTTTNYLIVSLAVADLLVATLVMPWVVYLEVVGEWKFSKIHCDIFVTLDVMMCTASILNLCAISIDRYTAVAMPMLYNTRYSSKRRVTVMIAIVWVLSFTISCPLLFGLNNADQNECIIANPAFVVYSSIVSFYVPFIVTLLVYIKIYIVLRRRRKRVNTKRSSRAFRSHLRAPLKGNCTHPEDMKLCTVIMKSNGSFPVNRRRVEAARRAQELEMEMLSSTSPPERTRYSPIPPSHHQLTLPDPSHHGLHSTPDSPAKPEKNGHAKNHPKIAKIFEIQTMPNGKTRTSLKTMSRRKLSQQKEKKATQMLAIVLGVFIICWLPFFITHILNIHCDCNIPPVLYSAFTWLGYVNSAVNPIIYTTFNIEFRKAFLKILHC
Description: (§1) Assay for D2 and D3 receptor binding activity
(§2) Pellets of COS cells containing recombinantly produced D2 or D3 receptors from African Green monkey were used for the assays. The sample is homogenized in 100 volumes (w/vol) of 0.05 M Tris HCl buffer at 4° C. and pH 7.4. The sample is then centrifuged at 30,000×g and resuspended and rehomogenized. The sample is then centrifuged as described and the final tissue sample is frozen until use. The tissue is resuspended 1:20 (wt/vol) in 0.05 M Tris HCl buffer containing 100 mM NaCl.
(§3) Incubations are carried out at 48° C. and contain 0.4 ml of tissue sample, 0.5 nM ^3H-YM 09151-2 and the compound of interest in a total incubation of 1.0 ml. Nonspecific binding is defined as that binding found in the presence of 1 μM spiperone; without further additions, nonspecific binding is less than 20% of total binding.

[1] = target: T2, human dopamine D4 receptor subtype (Homo sapiens, UniProt P21917); assay: D4 receptor binding assay ([3H]YM-09151-2 displacement)
T2 construct: expressed in transfected cells
T2 sequence (P21917 1-419): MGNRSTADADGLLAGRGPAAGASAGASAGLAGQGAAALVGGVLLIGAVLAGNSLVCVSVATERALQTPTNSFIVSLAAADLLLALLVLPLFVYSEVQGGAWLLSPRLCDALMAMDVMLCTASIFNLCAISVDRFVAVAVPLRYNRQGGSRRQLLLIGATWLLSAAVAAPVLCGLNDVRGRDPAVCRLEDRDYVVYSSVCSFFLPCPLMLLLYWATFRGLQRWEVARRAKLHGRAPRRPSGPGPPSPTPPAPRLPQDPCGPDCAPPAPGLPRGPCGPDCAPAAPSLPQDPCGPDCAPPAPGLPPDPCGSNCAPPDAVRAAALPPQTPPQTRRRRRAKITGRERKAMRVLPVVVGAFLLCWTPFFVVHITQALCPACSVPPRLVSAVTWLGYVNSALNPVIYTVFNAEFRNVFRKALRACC
Description: Assay for D4 receptor binding activity
Clonal cell lines expressing the human dopamine D4 receptor subtype were harvested in PBS and the cells centrifuged and the pellets stored at −80° C. until used in the binding assay. The pellets were resuspended and the cells lysed at 4° C. in 50 mM Tris pH 7.4 buffer containing 120 mM NaCl, 1 mM EDTA and 5 mM MgCl2. The homogenate is centrifuged at 48000×g for 10 minutes at 4° C. The resulting pellet is resuspended in fresh buffer and centrifuged again. After resuspension of the pellet in fresh buffer a […] aliquot is removed for protein determination. […] Incubations were carried out for 60 minutes at 25° C. in the presence of 0.1 nM [^3H] […] The incubation was terminated by rapid filtration through Whatman GF/C filters and rinsed with 2×4 ml washes of chilled 50 mM Tris (pH 7.4) and 120 mM NaCl. Non-specific binding was determined with 1 μM spiperone and radioactivity determined by counting in an LKB beta counter. Binding parameters were determined by non-linear least squares regression analysis, from which the inhibition constant Ki could be calculated for each test compound.

D3 receptors = target: T3, D3 receptors (Chlorocebus aethiops, UniProt P52703); assay: D3 receptor binding assay (3H-YM 09151-2 displacement); set-up: species or system African Green monkey; conditions: COS cells with recombinant D3 receptor; 0.5 nM 3H-YM 09151-2
T3 construct: expressed in transfected cells; host or cells: COS cells
T3 sequence (P52703 whole entry): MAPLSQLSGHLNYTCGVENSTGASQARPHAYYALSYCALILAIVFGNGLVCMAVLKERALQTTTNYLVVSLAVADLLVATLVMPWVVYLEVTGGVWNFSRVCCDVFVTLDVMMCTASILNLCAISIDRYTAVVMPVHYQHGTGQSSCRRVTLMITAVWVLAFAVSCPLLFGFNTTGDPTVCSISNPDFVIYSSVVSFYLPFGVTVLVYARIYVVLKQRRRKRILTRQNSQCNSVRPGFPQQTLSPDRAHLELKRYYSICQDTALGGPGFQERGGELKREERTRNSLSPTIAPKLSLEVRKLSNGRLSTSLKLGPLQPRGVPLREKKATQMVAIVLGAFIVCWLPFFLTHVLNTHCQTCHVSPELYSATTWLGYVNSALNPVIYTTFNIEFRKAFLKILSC
Description: as §1, §2, §3

[2] = clonal cell lines expressing human D4, 0.1 nM [3H]YM-09151-2, 60 minutes at 25° C., read-out: Ki

| Structure (SMILES) | melting point | pKi (D2 receptors) | pKi [1, 2] | pKi (D3 receptors) | pKi [1] |
| --- | --- | --- | --- | --- | --- |
| c1cnc(N2CCN(Cc3nc4c([nH]3)-c3ccccc3CC4)CC2)nc1 (as salt: hydrochloride) [Compound 1, 1H-2-(1-(4-(2-pyrimidyl)piperazinyl))methyl-(5,6-dihydro)-naphth[1,2-d]imidazole dihydrochloride] | 212 to 214 °C |  |  |  |  |
| CN(Cc1ccccc1)Cc1nc2c([nH]1)-c1ccccc1CC2 (as salt: hydrochloride) [Compound 2, 1H-{2-(N-benzyl-N-methyl)aminomethyl}-(5,6-dihydro)-naphth[1,2-d]imidazole dihydrochloride] | 225 to 227 °C |  |  |  |  |
| CN(Cc1ccccc1)Cc1nc2c([nH]1)-c1ccccc1OC2 (as salt: hydrochloride) [Compound 3, 1H-{2-(N-benzyl-N-methyl)aminomethyl}chromano[3,4-d]imidazole dihydrochloride] | 198 to 201 °C (dec.) |  |  |  |  |
| c1cnc(N2CCN(Cc3nc4c([nH]3)-c3ccccc3CC4)CC2)nc1 [Compound 1, 1H-2-(1-(4-(2-pyrimidyl)piperazinyl))methyl-(5,6-dihydro)-naphth[1,2-d]imidazole dihydrochloride] |  | 5.38 | 7.92 | 5.11 |  |
| CN(Cc1ccccc1)Cc1nc2c([nH]1)-c1ccccc1CC2 [Compound 2, 1H-{2-(N-benzyl-N-methyl)aminomethyl}-(5,6-dihydro)-naphth[1,2-d]imidazole dihydrochloride] |  | 6.46 |  | 6.68 | 7.09 |
| CN(Cc1ccccc1)Cc1nc2c([nH]1)-c1ccccc1OC2 [Compound 3, 1H-{2-(N-benzyl-N-methyl)aminomethyl}chromano[3,4-d]imidazole dihydrochloride] |  | 6.66 | 6.84 | 6.36 |  |
